This note sets out measurements from PubChem BioAssay AID1963597 (National Center for Advancing Translational Sciences (NCATS), 2024).

Molecules are shown by their SMILES. Residues, ends and D or L forms follow the SMILES beside them. *: point of attachment. Hexanoyl = CCCCCC(=O)*

This data set deals with human liver microsomes, metabolic stability half-life. Put plainly: NCATS Human Liver Microsomal (HLM) Stability Profiling. The conditions noted are these: higher = more stable; screened at 1 µM (by protocol). The method, boiled down: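 Substrate depletion (in vitro t1/2): 1 µM compound with 0.5 mg/mL microsomes and NADPH regenerating system, phosphate buffer pH 7.4, 37 °C. Sampled at 0, 5, 10, 15, 30, 60 min into cold acetonitrile with albendazole internal standard for MS quantification.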
On the technique in general: Liver microsomes are vesicles of endoplasmic reticulum, rich in cytochrome P450 enzymes.
Consider `COc1ccc(CCN(C)CCC[C@@](C#N)(c2cc(OC)c(OC)c(OC)c2)C(C)C)cc1OC`, for which the half-life (as a rule, the time in which the quantity being followed falls by half) worked out at 7.68 min.
For `Cc1c(NC(=O)OCC2COCCN2)cn2ncnc(Nc3ccc4c(cnn4Cc4cccc(F)c4)c3)c12` (configuration not stated) the value was over 120 min; for `O=C(Nc1ncc(-c2cc(C(F)F)nn2-c2c(Cl)cccc2Cl)s1)C1CC1`, over 120 min; for `CC(C)(C)c1coc([C@@H]2COCCN2Cc2cccc(C#N)c2)n1`, 10.4 min.
The figure for `C#CCOC(C(=O)OCCN(C)C)(c1ccccc1)c1ccccc1` is 43.7 min; for `CCCCNc1c(C(=O)OCC)c(C)nc2c1cnn2CC` it is 5.85 min; for `O=C(CCBr)N1CCN(C(=O)CCBr)CC1` it is over 120 min.
Consider `CN1C(C)(C)CCCC1(C)C`, for which the half-life was over 120 min.
The figure for `CC[C@@H]([C@H](C)O)n1ncn(-c2ccc(N3CCN(c4ccc(OC[C@@H]5CO[C@@](Cn6cncn6)(c6ccc(F)cc6F)C5)cc4)CC3)cc2)c1=O` is over 120 min; for `Cc1nc2ccc(CN(C)c3ccc(C(=O)NC(CCC(=O)O)C(=O)O)s3)cc2c(=O)[nH]1` (configuration not stated) it is over 120 min.
For `Cc1[nH]c(/C=C2\C(=O)Nc3cc(-c4ccccc4)ccc32)c(C)c1CCC(=O)O` the value was over 120 min; for `Cc1nn(CC(=O)NCCc2ccccc2)c(=O)c2c1sc1ccccc12`, 6.82 min; for `CN(C)CCN(Cc1ccc(Cl)cc1)c1ccccn1`, 18.8 min.
For the compound `CC1(C)C(=O)C(C)(C)c2cc(C(=O)Nc3ccc(C(=O)O)cc3)ccc21`, the half-life is over 120 min.
For `[O-][n+]1cccc(CO)c1` the value was over 120 min; for `CCOc1cc(OCC)c(C(=O)CCC(=O)O)cc1OCC`, over 120 min.
`COc1cc(NS(=O)(=O)c2ccc(N)cc2)nc(OC)n1` yielded a half-life of over 120 min.
The compound `Fc1ccc(-c2nc(C3CCNCC3)sc2-c2ccnc(NC3CC3)n2)cc1` had a half-life of over 120 min.
The compound `CC(=O)c1ccc(O)c(C(N)=O)c1` yielded a half-life of over 120 min.
The figure for `Cc1cc2c(F)c(Oc3ncnn4cc(OCC(C)O)c(C)c34)ccc2[nH]1` (configuration not stated) is over 120 min.
With `C=CC1=C(C(=O)O)N2C(=O)[C@@H](NC(=O)/C(=N\OCC(=O)O)c3csc(N)n3)[C@H]2SC1`, the half-life is over 120 min.
Regarding `COCC(C)N(C(=O)CCl)c1c(C)csc1C` (configuration not stated), the half-life was 10.9 min.
As for `Cc1ccc(NC(=O)Cn2c(=O)n(CCC(=O)N3CCc4ccccc4C3)c(=O)c3ccccc32)c(C)c1`, the half-life stood at 1.41 min.
`O=C(Cn1cc(SCc2cccc(Cl)c2)c2ccccc21)N1CCCCC1`: the half-life is 0.84 min.
On to `ClCCN1CCCC1`, for which the half-life is 55.7 min.
For the compound `COc1cc2nc(Cl)nc(N)c2cc1OC`, the half-life was 105 min.
In turn, `COc1ccc(C(=O)c2ccccc2O)c(O)c1` registered a half-life of 8.9 min.
The figure for `O=[N+]([O-])c1cn2c(n1)OC[C@@H](OCc1ccc(OC(F)(F)F)cc1)C2` is over 120 min; for `COc1ccc(C2Nc3ccccc3C(=O)N2Cc2ccco2)cc1COc1ccc(NC(C)=O)cc1` (configuration not stated) it is 2.15 min; for `CCCCCC(=O)N1CCC[C@H]1C(=O)N[C@@H](Cc1ccc(O)cc1)C(=O)OC` (Hexanoyl-Pro-Tyr-OMe) it is 7.74 min.
Turning to `CC(C)NC(=O)COc1cccc(-c2nc(Nc3ccc4[nH]ncc4c3)c3ccccc3n2)c1`, the half-life was 23.4 min.
On to `Fc1ccc2[nH]c(CN3CCN(c4ccccn4)CC3)cc2c1`, for which the half-life came to 14.3 min.
Compound `CNS(=O)(=O)c1ccc(Cc2c(-c3cccc(-c4ccccc4)c3)[nH]n(-c3nc(C(=O)O)cs3)c2=O)cc1` gave a half-life of over 120 min.
In the case of `O=C(c1cnn(-c2cccc(F)c2)c1-n1cccc1)N1CCN(c2ccccc2F)CC1`, the half-life stood at 9.4 min.
Take `Cc1cccc(N2CCN(C(=O)c3cccn3-c3nnc(N4CCCCC4)s3)CC2)c1C`: the half-life was 3.17 min.
As to `O=C(NCC1CCN(Cc2cccc(Cl)c2)CC1)[C@@H]1CCCN(c2ncnc3c2nc2n3CCCC2)C1`, the half-life came out at 8.65 min.
On to `CC(C)(CNC(=O)c1cccc(-c2noc(C(F)(F)F)n2)c1)c1coc(-c2ccccc2)n1`, for which the half-life turned out to be 33.1 min.
Compound `O=C(CO)N1CCC(c2[nH]nc(-c3ccc(Cl)cc3)c2-c2ccncn2)CC1` showed a half-life of over 120 min.
With `COc1ccc2cc(-c3cc(-c4cc(Cl)cc(Cl)c4)nn3C(C)c3ccc(C(=O)NCCC(=O)O)cc3)ccc2c1` (configuration not stated), the half-life is over 120 min.
Compound `O=C1CC2(CCCC2)CC(=O)N1CCNC[C@H]1COc2ccccc2O1` gave a half-life of 8.26 min.
`CCCSP(=S)(OCC)Oc1ccc(SC)cc1` (configuration not stated) yielded a half-life of over 120 min.
For the compound `N#Cc1cccc(CN2CCOC[C@H]2c2ncc(-c3ccc(F)cc3)[nH]2)c1`, the half-life turned out to be 3.38 min.
`CCN1CCN(C(=O)Cc2cccn2-c2ccc(F)cc2)CC1` registered a half-life of 114 min.
Regarding `CCc1cc2cc(OC)c(OC)cc2c(Cc2ccccc2)n1`, the half-life was determined as 8.36 min.
The figure for `CCNC1(C(N)=O)CN(c2nc(C)nc3c(-c4ccc(Cl)cc4)c(-c4ccccc4Cl)nn23)C1` is 20.5 min; for `Cc1nc2c3ccccc3nc(NNC(=O)CCC(=O)N3CCN(c4ccc(F)cc4)CC3)n2n1` it is 40.4 min; for `CCOC(=O)[C@H](CCc1ccccc1)N[C@H]1CS[C@H](c2cccs2)CN(CC(=O)O)C1=O` it is 6.54 min.
For `Cc1nc(NC(=O)N2CCCC2C(N)=O)sc1-c1ccnc(C(C)(C)C(F)(F)F)c1` (configuration not stated) the value was over 120 min; for `CC1(c2ccccc2)N(Cc2ccccc2)C(=O)OC12CCN(Cc1ccc(C(=O)O)cc1)CC2` (configuration not stated), over 120 min; for `CN1CCN(C(=O)c2ccc3nccn3c2)CC1`, over 120 min.
For `CCN(CC)CCNc1ccc(CO)c2sc3ccccc3c(=O)c12`, the half-life is 90.3 min.
`NC(N)=Nc1nc(CSCC/C(N)=N/S(N)(=O)=O)cs1`: the half-life was over 120 min.
In turn, `CN(C)[C@@H]1C(=O)C(C(N)=O)=C(O)[C@@]2(O)C(=O)C3=C(O)c4c(O)cccc4C[C@H]3C[C@@H]12` came in with a half-life of over 120 min.
In turn, `Nc1ncnc2c1ncn2[C@H]1O[C@@H](C(=O)N2CCN(CC(=O)Nc3cccc4c3CNC4=O)CC2)[C@H](O)[C@@H]1O` showed a half-life of over 120 min.
Consider `COC(=O)c1ccc2c(C(=Nc3ccc(N(C)C(=O)CN4CCN(C)CC4)cc3)c3ccccc3)c(O)[nH]c2c1`, for which the half-life amounted to 49.1 min.
In the case of `FC(F)(F)Oc1ccc(-c2ccc3nnc(C(F)(F)F)n3c2)cc1`, the half-life is over 120 min.
Regarding `CC1=C(CC(=O)O)c2cc(F)ccc2/C1=C\c1ccc(S(C)=O)cc1` (configuration not stated), the half-life is over 120 min.
In turn, `Cn1c(=O)c(F)c(Nc2ccc(I)cc2F)c2c(=O)n(CC(O)CO)cnc21` (configuration not stated) yielded a half-life of over 120 min.
The figure for `CN[C@@H](C)[C@@H](O)c1ccccc1` is over 120 min; for `O=C(OC1C[C@@H]2CC3C[C@H](C1)N2CC3=O)c1c[nH]c2ccccc12` (some centres not stated) it is 5.19 min; for `O=C(CCCN1CCC(n2c(=O)[nH]c3ccccc32)CC1)c1ccc(F)cc1` it is over 120 min.
In turn, `CNC(=O)O[C@H]1COc2ccc(N3CCN(C4COC4)CC3)cc2[C@@H]1NC(=O)c1ccc(F)cc1` returned a half-life of over 120 min.
`Cc1c(C(=O)Nc2cccc(C(F)(F)F)c2)cc(-c2ccccc2)n1CCCN1CCOCC1` registered a half-life of 8.06 min.
Regarding `CCc1cccc2cc(C(O)CNC(C)(C)C)oc12` (configuration not stated), the half-life was determined as 96.4 min.
Take `Cc1ccc(O)cc1Nc1ccnc(Nc2cccc(C(N)=O)c2)n1`: the half-life came out at 86.5 min.
Regarding `Cc1c(C)n(Cc2ccccc2)c2ccc(C(=O)OCCN(C)C)cc12`, the half-life came out at 11.1 min.
The figure for `Cn1c(=O)cc(N2CCCC(N)C2)n(Cc2ccccc2C#N)c1=O` (configuration not stated) is over 120 min.
As for `CCOC(=O)[C@H](CCc1ccccc1)N[C@H]1CCc2ccccc2N(CC(=O)O)C1=O`, the half-life came out at 18.6 min.
For `C[C@]12CC[C@@H]3c4ccc(O)cc4CC[C@H]3[C@@H]1CCC2=O` the value was 34.1 min; for `CCN(CC)Cc1ccc(C(=O)N(CCc2ccccc2OC)[C@@H]2CCNC2)cc1`, over 120 min; for `Cc1ncc(CSSCc2cnc(C)c(O)c2CO)c(CO)c1O`, over 120 min.
As to `COc1cc(C(C)=O)ccc1OCCCN1CCC(c2noc3cc(F)ccc23)CC1`, the half-life amounted to 25.1 min.
`CC1=C2[C@H]3OC(=O)[C@@H](C)[C@@H]3CC[C@@]2(C)C=CC1=O` registered a half-life of over 120 min.
The compound `COc1ccc(CN(CCN(C)C)c2ncccn2)cc1` showed a half-life of 8.72 min.
For `COC(=O)/C=C\C(=O)OC`, the half-life is over 120 min.
Consider `CC(C)(C)c1ccc(CNC(=S)NCc2ccc(NS(C)(=O)=O)c(F)c2)cc1`, for which the half-life is 43 min.
For `CC(=O)N1CCN(c2ccc(O)cc2)CC1` the value was over 120 min; for `Clc1cccc(C(c2ccc3nc[nH]c3c2)n2ccnc2)c1` (configuration not stated), over 120 min.
Compound `C[C@@]1(c2cc(-c3cncnc3)c(F)cc2F)CCSC(N)=N1` displayed a half-life of over 120 min.
In the case of `CCN1CCCC1CNC(=O)C(O)(c1ccccc1)c1ccccc1` (configuration not stated), the half-life was over 120 min.
In turn, `CCc1nc(C(N)=O)c(Nc2ccc(N3CCC(N4CCN(C)CC4)CC3)c(OC)c2)nc1NC1CCOCC1` returned a half-life of over 120 min.
`CCN1C(=O)NC(c2ccccc2)C1=O` (configuration not stated) had a half-life of over 120 min.
As to `Oc1ccc(-c2cnc3ccc(NCc4ccco4)nn23)cc1`, the half-life was determined as 9.45 min.
Take `Cc1ccc(-c2nc3ccc(C)cn3c2CC(=O)N(C)C)cc1`: the half-life is over 120 min.
Compound `O=C(NC1CC1)C1CCCN1C(=O)c1cccc(-c2ccccn2)c1` (configuration not stated) had a half-life of over 120 min.
In turn, `CC(C)(C)c1ccc(-c2nc(SCC(=O)Nc3ccc(Cl)cc3)[nH]c(=O)c2C#N)cc1` displayed a half-life of 19.2 min.
`COc1ccc(CN2CCN(C(c3ccc(F)cc3)c3ccc(F)cc3)CC2)c(OC)c1OC` displayed a half-life of 13.1 min.
In the case of `C(#Cc1cccc(CN2CCOCC2)c1)CCN1CCCCC1`, the half-life was over 120 min.
The figure for `COCCn1c(SCC(=O)Nc2ccc(F)c(Cl)c2)nc2c(oc3ccccc32)c1=O` is 7.26 min.
For `Nc1nccs1` the value was 53.7 min; for `C#Cc1cccc(Nc2ncnc3cc(OCCOC)c(OCCO)cc23)c1`, over 120 min; for `CN(C)CC/C=C1\c2ccccc2Sc2ccc(Cl)cc21`, 24.3 min.
